Experimental data published in ChEMBL document CHEMBL1155172, “Distribution of radioactivity in bone and related structures following administration of [14C]dalbavancin to New Zealand white rabbits” (Antimicrob Agents Chemother, 2007).

Legend:
[1] = Drug level in New Zealand white rabbit ligament assessed as [14C]dalbavancin level per gram of tissue at 20 mg/kg, iv after 168 hrs by autoradioluminography; type: ADME, organism-based, Oryctolagus cuniculus; set-up: dose 20 mg/kg, route intravenous; conditions: in vivo
[2] = Drug level in New Zealand white rabbit ligament assessed as [14C]dalbavancin level per gram of tissue at 20 mg/kg, iv after 336 hrs by autoradioluminography; type: ADME, organism-based, Oryctolagus cuniculus; set-up: dose 20 mg/kg, route intravenous; conditions: in vivo
[3] = Drug level in New Zealand white rabbit synovial space assessed as [14C]dalbavancin level per gram of tissue at 20 mg/kg, iv after 24 hrs by autoradioluminography; type: ADME, organism-based, Oryctolagus cuniculus; set-up: dose 20 mg/kg, route intravenous; conditions: in vivo
[4] = Drug level in New Zealand white rabbit synovial space assessed as [14C]dalbavancin level per gram of tissue at 20 mg/kg, iv after 72 hrs by autoradioluminography; type: ADME, organism-based, Oryctolagus cuniculus; set-up: dose 20 mg/kg, route intravenous; conditions: in vivo
[5] = Drug level in New Zealand white rabbit synovial space assessed as [14C]dalbavancin level per gram of tissue at 20 mg/kg, iv after 120 hrs by autoradioluminography; type: ADME, organism-based, Oryctolagus cuniculus; set-up: dose 20 mg/kg, route intravenous; conditions: in vivo
[6] = Drug level in New Zealand white rabbit meniscus assessed as [14C]dalbavancin level per gram of tissue at 20 mg/kg, iv after 12 hrs by autoradioluminography; type: ADME, organism-based, Oryctolagus cuniculus; set-up: dose 20 mg/kg, route intravenous; conditions: in vivo
[7] = Drug level in New Zealand white rabbit meniscus assessed as [14C]dalbavancin level per gram of tissue at 20 mg/kg, iv after 72 hrs by autoradioluminography; type: ADME, organism-based, Oryctolagus cuniculus; set-up: dose 20 mg/kg, route intravenous; conditions: in vivo
[8] = Drug level in New Zealand white rabbit bone marrow assessed as [14C]dalbavancin level per gram of tissue at 20 mg/kg, iv after 12 hrs by autoradioluminography; type: ADME, organism-based, Oryctolagus cuniculus; set-up: dose 20 mg/kg, route intravenous; conditions: in vivo
[9] = Drug level in New Zealand white rabbit bone marrow assessed as [14C]dalbavancin level per gram of tissue at 20 mg/kg, iv after 24 hrs by autoradioluminography; type: ADME, organism-based, Oryctolagus cuniculus; set-up: dose 20 mg/kg, route intravenous; conditions: in vivo
[10] = Drug level in New Zealand white rabbit bone marrow assessed as [14C]dalbavancin level per gram of tissue at 20 mg/kg, iv after 120 hrs by autoradioluminography; type: ADME, organism-based, Oryctolagus cuniculus; set-up: dose 20 mg/kg, route intravenous; conditions: in vivo
[11] = Drug level in New Zealand white rabbit bone marrow assessed as [14C]dalbavancin level per gram of tissue at 20 mg/kg, iv after 336 hrs by autoradioluminography; type: ADME, organism-based, Oryctolagus cuniculus; set-up: dose 20 mg/kg, route intravenous; conditions: in vivo
[12] = Drug level in New Zealand white rabbit skeletal muscle assessed as [14C]dalbavancin level per gram of tissue at 20 mg/kg, iv after 72 hrs by autoradioluminography; type: ADME, organism-based, Oryctolagus cuniculus; set-up: dose 20 mg/kg, route intravenous; conditions: in vivo
Streptococcus = assay: Antibacterial activity against Streptococcus; type: functional
Blood [13] = assay: Drug level in New Zealand white rabbit blood assessed as [14C]dalbavancin level per gram of tissue at 20 mg/kg, iv after 336 hrs by autoradioluminography; type: ADME, organism-based, Oryctolagus cuniculus; set-up: dose 20 mg/kg, route intravenous; conditions: in vivo
[14] = Drug level in New Zealand white rabbit articular cartilage assessed as [14C]dalbavancin level per gram of tissue at 20 mg/kg, iv after 12 hrs by autoradioluminography; type: ADME, organism-based, Oryctolagus cuniculus; set-up: dose 20 mg/kg, route intravenous; conditions: in vivo
[15] = Drug level in New Zealand white rabbit compact bone assessed as [14C]dalbavancin level per gram of tissue at 20 mg/kg, iv after 72 hrs by autoradioluminography; type: ADME, organism-based, Oryctolagus cuniculus, Bone element; set-up: dose 20 mg/kg, route intravenous; conditions: in vivo
[16] = Drug level in New Zealand white rabbit compact bone assessed as [14C]dalbavancin level per gram of tissue at 20 mg/kg, iv after 120 hrs by autoradioluminography; type: ADME, organism-based, Oryctolagus cuniculus, Bone element; set-up: dose 20 mg/kg, route intravenous; conditions: in vivo
[17] = Drug level in New Zealand white rabbit compact bone assessed as [14C]dalbavancin level per gram of tissue at 20 mg/kg, iv after 336 hrs by autoradioluminography; type: ADME, organism-based, Oryctolagus cuniculus, Bone element; set-up: dose 20 mg/kg, route intravenous; conditions: in vivo
[18] = Drug level in New Zealand white rabbit epiphyseal plate assessed as [14C]dalbavancin level per gram of tissue at 20 mg/kg, iv after 168 hrs by autoradioluminography; type: ADME, organism-based, Oryctolagus cuniculus; set-up: dose 20 mg/kg, route intravenous; conditions: in vivo
[19] = Drug level in New Zealand white rabbit epiphyseal plate assessed as [14C]dalbavancin level per gram of tissue at 20 mg/kg, iv after 336 hrs by autoradioluminography; type: ADME, organism-based, Oryctolagus cuniculus; set-up: dose 20 mg/kg, route intravenous; conditions: in vivo
[20] = Drug level in New Zealand white rabbit ligament assessed as [14C]dalbavancin level per gram of tissue at 20 mg/kg, iv after 72 hrs by autoradioluminography; type: ADME, organism-based, Oryctolagus cuniculus; set-up: dose 20 mg/kg, route intravenous; conditions: in vivo
[21] = Drug level in New Zealand white rabbit ligament assessed as [14C]dalbavancin level per gram of tissue at 20 mg/kg, iv after 120 hrs by autoradioluminography; type: ADME, organism-based, Oryctolagus cuniculus; set-up: dose 20 mg/kg, route intravenous; conditions: in vivo
Oryctolagus cuniculus [22] = assay: Plasma concentration in New Zealand white rabbit assessed as [14C]dalbavancin level per gram of tissue at 20 mg/kg, iv after 12 hrs by liquid scintillation counting method; type: ADME, organism-based; set-up: dose 20 mg/kg, route intravenous; conditions: in vivo
Oryctolagus cuniculus [23] = assay: Plasma concentration in New Zealand white rabbit assessed as [14C]dalbavancin level per gram of tissue at 20 mg/kg, iv after 24 hrs by liquid scintillation counting method; type: ADME, organism-based; set-up: dose 20 mg/kg, route intravenous; conditions: in vivo
Oryctolagus cuniculus [24] = assay: Plasma concentration in New Zealand white rabbit assessed as [14C]dalbavancin level per gram of tissue at 20 mg/kg, iv after 120 hrs by liquid scintillation counting method; type: ADME, organism-based; set-up: dose 20 mg/kg, route intravenous; conditions: in vivo
Oryctolagus cuniculus [25] = assay: Plasma concentration in New Zealand white rabbit assessed as [14C]dalbavancin level per gram of tissue at 20 mg/kg, iv after 336 hrs by liquid scintillation counting method; type: ADME, organism-based; set-up: dose 20 mg/kg, route intravenous; conditions: in vivo
[26] = Drug level in New Zealand white rabbit bone assessed as [14C]dalbavancin level per gram of tissue at 20 mg/kg, iv after 24 hrs by liquid scintillation counting method; type: ADME, organism-based, Oryctolagus cuniculus, Bone element; set-up: dose 20 mg/kg, route intravenous; conditions: in vivo
[27] = Drug level in New Zealand white rabbit bone assessed as [14C]dalbavancin level per gram of tissue at 20 mg/kg, iv after 168 hrs by liquid scintillation counting method; type: ADME, organism-based, Oryctolagus cuniculus, Bone element; set-up: dose 20 mg/kg, route intravenous; conditions: in vivo
[28] = Drug level in New Zealand white rabbit bone assessed as [14C]dalbavancin level per gram of tissue at 20 mg/kg, iv after 336 hrs by liquid scintillation counting method; type: ADME, organism-based, Oryctolagus cuniculus, Bone element; set-up: dose 20 mg/kg, route intravenous; conditions: in vivo
[29] = Drug level in New Zealand white rabbit bone marrow assessed as [14C]dalbavancin level per gram of tissue at 20 mg/kg, iv after 24 hrs by liquid scintillation counting method; type: ADME, organism-based, Oryctolagus cuniculus; set-up: dose 20 mg/kg, route intravenous; conditions: in vivo
[30] = Drug level in New Zealand white rabbit bone marrow assessed as [14C]dalbavancin level per gram of tissue at 20 mg/kg, iv after 72 hrs by liquid scintillation counting method; type: ADME, organism-based, Oryctolagus cuniculus; set-up: dose 20 mg/kg, route intravenous; conditions: in vivo
[31] = Drug level in New Zealand white rabbit bone marrow assessed as [14C]dalbavancin level per gram of tissue at 20 mg/kg, iv after 168 hrs by liquid scintillation counting method; type: ADME, organism-based, Oryctolagus cuniculus; set-up: dose 20 mg/kg, route intravenous; conditions: in vivo
[32] = Drug level in New Zealand white rabbit bone marrow assessed as [14C]dalbavancin level per gram of tissue at 20 mg/kg, iv after 336 hrs by liquid scintillation counting method; type: ADME, organism-based, Oryctolagus cuniculus; set-up: dose 20 mg/kg, route intravenous; conditions: in vivo
[33] = Drug level in New Zealand white rabbit nucleus pulposus assessed as [14C]dalbavancin level per gram of tissue at 20 mg/kg, iv after 168 hrs by liquid scintillation counting method; type: ADME, organism-based, Oryctolagus cuniculus; set-up: dose 20 mg/kg, route intravenous; conditions: in vivo
[34] = Drug level in New Zealand white rabbit nucleus pulposus assessed as [14C]dalbavancin level per gram of tissue at 20 mg/kg, iv after 336 hrs by liquid scintillation counting method; type: ADME, organism-based, Oryctolagus cuniculus; set-up: dose 20 mg/kg, route intravenous; conditions: in vivo
Blood [35] = assay: Drug level in New Zealand white rabbit blood assessed as [14C]dalbavancin level per gram of tissue at 20 mg/kg, iv after 24 hrs by autoradioluminography; type: ADME, organism-based, Oryctolagus cuniculus; set-up: dose 20 mg/kg, route intravenous; conditions: in vivo
Blood [36] = assay: Drug level in New Zealand white rabbit blood assessed as [14C]dalbavancin level per gram of tissue at 20 mg/kg, iv after 12 hrs by autoradioluminography; type: ADME, organism-based, Oryctolagus cuniculus; set-up: dose 20 mg/kg, route intravenous; conditions: in vivo
Blood [37] = assay: Drug level in New Zealand white rabbit blood assessed as [14C]dalbavancin level per gram of tissue at 20 mg/kg, iv after 72 hrs by autoradioluminography; type: ADME, organism-based, Oryctolagus cuniculus; set-up: dose 20 mg/kg, route intravenous; conditions: in vivo

Drug uptake [1]: 2.67 µg | Drug uptake [2]: 1.43 µg | Drug uptake [3]: 4.25 µg | Drug uptake [4]: 1.49 µg/g | Drug uptake [5]: 2.66 µg/g | Drug uptake [6]: 19.19 µg | Drug uptake [7]: 8.04 µg | Drug uptake [8]: 40.2 µg/g | Drug uptake [9]: 32.1 µg/g | Drug uptake [10]: 29.9 µg/g | Drug uptake [11]: 30.3 µg/g | Drug uptake [12]: 1.25 µg | MIC90 (Streptococcus): ≤ 0.03 µg/mL | Drug uptake (Blood [13]): 3.08 µg/g | Drug uptake [14]: 25.1 µg/g | Drug uptake [15]: 0.39 µg | Drug uptake [16]: 0.38 µg/g | Drug uptake [17]: 0.24 µg/g | Drug uptake [18]: 13.1 µg/g | Drug uptake [19]: 8.42 µg/g | Drug uptake [20]: 4.56 µg | Drug uptake [21]: 3.68 µg/g | Cp (Oryctolagus cuniculus [22]): 46.88 µg | Cp (Oryctolagus cuniculus [23]): 19.3 µg/g | Cp (Oryctolagus cuniculus [24]): 2.78 µg | Cp (Oryctolagus cuniculus [25]): 0.94 µg | Drug uptake [26]: 5.14 µg/g | Drug uptake [27]: 3.39 µg/g | Drug uptake [28]: 1.96 µg/g | Drug uptake [29]: 14.8 µg/g | Drug uptake [30]: 12.7 µg/g | Drug uptake [31]: 16.1 µg/g | Drug uptake [32]: 12 µg/g | Drug uptake [33]: 0.64 µg/g | Drug uptake [34]: 0.6 µg/g | Drug uptake (Blood [35]): 14.49 µg | Drug uptake (Blood [36]): 30.6 µg/g | Drug uptake (Blood [37]): 5.02 µg/g
Structure (SMILES): CN[C@H]1C(=O)N[C@@H]2Cc3ccc(cc3)Oc3cc4cc(c3O[C@@H]3O[C@H](C(=O)O)[C@@H](O)[C@H](O)[C@H]3NC(=O)CCCCCCCCC(C)C)Oc3ccc(cc3Cl)[C@@H](O)[C@@H]3NC(=O)[C@H](NC(=O)[C@@H]4NC(=O)[C@@H](NC2=O)c2cc(cc(O)c2Cl)Oc2cc1ccc2O)c1ccc(O)c(c1)-c1c(O[C@H]2O[C@H](CO)[C@@H](O)[C@H](O)[C@@H]2O)cc(O)cc1[C@@H](C(=O)NCCCN(C)C)NC3=O [DALBAVANCIN]
